Values after ≈ are worked out from the molar mass of the structure shown. Values joined by “and” are separate entries in the source; they are usually repeats but may differ in a detail not shown here. Identical values can stand only once.
Assays:
[1] = WO 99/18097; cited from earlier work
[2] = Equilibrium solubility method in water; type: physicochemical
Experimental: The solubility of crystalline form IV was determined by the equilibrium solubility method. A saturated solution of form IV, obtained by stirring 250 mg form IV in 6 ml water overnight, was prepared. The sample was filtered through a 0.45 μm membrane filter and the concentration of form IV in the filtrate was measured using a Perkin Elmer Lambda 35 UV/VIS spectrophotometer (λ=260 nm).

[3] = Storage stability of the solid form (degradation or polymorphic conversion by HPLC, IR or XRPD); type: physicochemical
Experimental: Crystalline form IV is stable under storage conditions which are typical for pharmaceutical compositions and is thus suitable for the preparation of medicaments. Typical storage conditions are, for example, storage at ambient temperature, such as about 20° C. to about 30° C., for several months (e.g., for at least 5 months, preferably at least 12 months, more preferably at least 24 months) in a closed vial.
In experiments crystalline form IV was stable during storage for 63 days at ambient temperature. Even when stored for 4 weeks at 40° C., crystalline form IV was stable.
In this context, “stable” means that neither degradation nor polymorphic conversion to another polymorphic form of crystalline form IV can be detected, for example by HPLC, IR or XRPD analysis as defined herein.

[4] = Polymorphic stability suspended in water and stirred; type: physicochemical; settings: suspended in water and stirred for 1 week at ambient temperature
[5] = Stability of form IV in an aqueous pharmaceutical composition (XRPD); type: physicochemical; settings: aqueous pharmaceutical suspension stirred at ambient temperature for 1 week
Experimental: The stability of form IV in an aqueous pharmaceutical composition was investigated. 240 mg form IV were suspended in a 4 ml aqueous suspension consisting of a mixture of 19 mg sodium benzoate, 3 mg citric acid, 19 mg xanthan gum, 60 mg Polysorbat 80, 600 mg glycerine and 2 g liquid glucose. The suspension was stirred at ambient temperature for 1 week.

[6] = Specific surface area, BET method with nitrogen (NOVA 2000); type: physicochemical; settings: for Specific Surface Area: BET, nitrogen, 77° K
Excerpt: The specific surface area of crystalline form IV of posaconazole as such, i.e. as obtained according to the herein described methods, is typically about 10-25 m^2/g±0.5 m^2/g, e.g. about 13-20 m^2/g±0.5 m^2/g, such as about 15-17 m^2/g±0.5 m^2/g, as measured according to the known Multi-Point-BET-method as herein described and as shown in Example 7. This specific surface area of crystalline form IV of posaconazole is about 10-fold larger when compared to that of known crystalline form I. It is known that the specific surface area between a solid and a liquid phase has a direct impact on the dissolution rate and thus on the bioavailability of the pharmaceutical ingredient as described e.g. by the equation by Nernst and Brunner as found in W. Nernst, Z. Phys. Chem. 47 (1904), pp. 52-55. […] Thus, crystalline form IV of posaconazole may advantageously be used as such, i.e. without being micronized, for preparing a pharmaceutical composition, e.g. a liquid suspension or dispersion as herein described—in contrast to known posaconazole forms which are micronized for use in such suspensions as e.g. described in WO 02/80678.
Specific surface area measurement was performed with the equipment NOVA 2000 as commercially available from Quantachrome Instruments using the BET method and Nitrogen as the absorbed gas at 77° K (i.e. −196.15° C.) as described e.g. by Medema J, Campagne A.: A Simple Method to Determine Cumulative Surface-Area Distributions of Porous Solids; Journal of Catalysis, Volume 8, Issue 2, pp. 120, 1967. Crystalline form IV of posaconazole was prepared according to Example 4. Crystalline form I was prepared by the method of example 3 described in U.S. Pat. No. 6,958,337.

[7] = Median particle size by laser diffraction (Malvern Mastersizer 2000S) in oral suspension; type: physicochemical; settings: for Median particle size (d (0.5)-value): in suspension, laser diffraction after 5 min ultrasonic treatment
Excerpt: The median particle size of crystalline form IV of posaconazole when used as such, i.e. in a non-micronized form for preparing a pharmaceutical composition in the form of a liquid suspension or dispersion as herein described, has been determined in samples taken from such suspension. Said median particle size is typically about 0.1-0.2 μm±0.05 μm, e.g. 0.14-0.17 μm, such as 0.15 μm, when measured with known laser diffraction methods, e.g. determination of the particle size distribution (Malvern) according to the US-Pharmacopeia (USP) 32 (2009) method <429> and to the European Pharmacopeia (EP) 6 (2008) method 2.9.31. based on the diffraction of laser by particles within the measurement volume (for details see Example 8). In the present invention, the term median particle size is understood to mean the d(0.5) value as determined according to the herein described laser diffraction methods.
Crystalline form IV as obtained by Example 4 was used to prepare 25 ml of a suspension as follows:
The suspension was prepared as follows: 40% of the final amount of Polysorbat 80 and 40% of the final amount of simethicone were mixed and dissolved and/or dispersed in about 12% of the final amount of purified water and homogenized with Ultra Turrax (30 seconds; 27,000 rpm). Subsequently, 1 g of the form IV of posaconazole, i.e. in its non-micronized form, were suspended or dispersed in this mixture under homogenization by Ultra Turrax (27,000 rpm, 2 minutes). The remaining 60% of Polysorbat 80 and of simethicone and 32% of the final amount of the purified water were added and mixed followed by the addition of sodium benzoate, sodium citrate dihydrate and citric acid monohydrate. After further mixing, xanthan gum was added to the mixture under stirring, followed by a 30 minutes phase of hydratization without mixing. Subsequently, glycerol and liquid glucose as well as titanium dioxide and the remaining portion of 56% of the final amount of purified water were added under mixing with a suitable homogenizer until a uniform suspension was obtained.
25 ml of a similar suspension were prepared analogously using non-micronized crystalline form I of posaconazole which was prepared by the method of example 3 described in U.S. Pat. No. 6,958,337.
Additionally, NOXAFIL® oral suspension (40 mg/ml) as commercially available from Medizone Germany GMBH (US product) was used to determine the particle size distribution of micronized form I of posaconazole which was contained in this known suspension.
The particle size distribution (Malvern) was measured according to the USP 32 (2009) method <429> and EP 6 (2008) method 2.9.31. based on the diffraction of laser by particles using a Mastersizer 2000S liquid dispersion system. The particle size measurement was started after ultrasonic treatment of the sample for 5 min.

[8] = Dissolution of suspensions, USP 32 method <711>, apparatus II (Paddle); type: physicochemical; settings: 25 rpm, 0.3% SLS aqueous solution
Experimental: The liquid suspensions containing non-micronized crystalline form IV or non-micronized crystalline form I as well as the NOXAFIL® oral suspension containing micronized crystalline form I described in Example 8 were tested for their dissolution behaviour.
Dissolution was tested according to USP 32 (2009) method <711> (USP apparatus II (Paddle); 25 rpm; dissolution medium: 0.3% SLS aqueous solution). Posaconazole concentrations were determined with an online photometer (UV absorption at 260 nm).
The results are shown in Table 4 below wherein values are the amount of posaconazole dissolved in %, and in more detail in FIG. 6 wherein the amount of posaconazole dissolved in % is plotted versus time in minutes.

[9] = Moisture sorption isotherm (SPS-11); type: physicochemical; settings: 90% relative humidity, 25° C.
Experimental: The moisture sorption isotherm was recorded with a SPS-11 moisture sorption analyzer (MD Mess-technik, Ulm, D). The measurement cycle was started at 0% relative humidity (RH), increased in 10% steps up to 90% RH and in a 5% step up to 95% RH. The equilibrium condition for each step was set to a constant mass±0.003% over 49 min. The temperature was 25±0.1° C.
The water content of the obtained crystalline form IV was 2.43%. […] The maximum water content peaks at 3.7% at 90% relative humidity, which corresponds to a water mol ratio of 1.5 (FIG. 4).

[10] = cited from earlier work
[11] = on storage as micronised powder, during manufacture or as formulated in the finished product; cited from earlier work
[12] = listed as crystalline form IV of posaconazole

CC[C@@H]([C@H](C)O)n1ncn(-c2ccc(N3CCN(c4ccc(OC[C@@H]5CO[C@@](Cn6cncn6)(c6ccc(F)cc6F)C5)cc4)CC3)cc2)c1=O [Crystalline form II, posaconazole]
stability under the conditions investigated [1]: unstable

CC[C@@H]([C@H](C)O)n1ncn(-c2ccc(N3CCN(c4ccc(OC[C@@H]5CO[C@@](Cn6cncn6)(c6ccc(F)cc6F)C5)cc4)CC3)cc2)c1=O [Crystalline Form IV, 2,5-anhydro-1,3,4-trideoxy-2-C-(2,4-difluorophenyl)-4-[[4-[4-[4-[1-[(1S,2S)-1-ethyl-2-hydroxypropyl]-1,5-dihydro-5-oxo-4H-1,2,4-triazol-4-yl]phenyl]-1-piperazinyl]phenoxy]methyl]-1-(1H-1,2,4-triazol-1-yl)-D-threo-pentitol]
solubility ([2]; thermodynamic from solid, saturated solution in water, stirred overnight, 0.45 μm filtered, UV 260 nm): 2.1 µg/mL (≈ 3 µM) | solubility compared with form I ([2]; water, equilibrium solubility): more than two times higher | stability during storage ([3]; 4 weeks at 40° C.): stable | stability during storage ([3]; 63 days at ambient temperature): stable | transformation into another form [4]: not susceptible to transformation into another form | stability in aqueous suspension (XRPD) [5]: remained stable | Specific Surface Area ([6]; listed as Crystalline Form IV of posaconazole): 15.5 m^2/g and 15.7 m^2/g | Specific Surface Area [6, 12]: 10-25 m^2/g | specific surface area relative to crystalline form I ([6]; larger than form I): about 10 fold | Median particle size (d (0.5)-value) ([7]; listed as Crystalline Form IV (non-micronized)): 0.15 μm | Median particle size (d (0.5)-value) [7, 12]: 0.1-0.2 μm | median particle size relative to micronized form I ([7]; smaller than micronized form I): about 10 fold | median particle size relative to non-micronized form I ([7]; smaller than non-micronized form I): about 90 fold | amount of posaconazole dissolved ([8]; 3 min, listed as Crystalline Form IV non-micronized): 82% | amount of posaconazole dissolved ([8]; 25 min, listed as Crystalline Form IV non-micronized): 100% | maximum water content (moisture sorption) [9]: 3.7% | water mol ratio at maximum water content [9]: 1.5

CC[C@@H]([C@H](C)O)n1ncn(-c2ccc(N3CCN(c4ccc(OC[C@@H]5CO[C@@](Cn6cncn6)(c6ccc(F)cc6F)C5)cc4)CC3)cc2)c1=O [posaconazole, 2,5-anhydro-1,3,4-trideoxy-2-C-(2,4-difluorophenyl)-4-[[4-[4-[4-[1-[(1S,2S)-1-ethyl-2-hydroxypropyl]-1,5-dihydro-5-oxo-4H-1,2,4-triazol-4-yl]phenyl]-1-piperazinyl]phenoxy]methyl]-1-(1H-1,2,4-triazol-1-yl)-D-threo-pentitol]
log P [10]: > 3

CC[C@@H]([C@H](C)O)n1ncn(-c2ccc(N3CCN(c4ccc(OC[C@@H]5CO[C@@](Cn6cncn6)(c6ccc(F)cc6F)C5)cc4)CC3)cc2)c1=O [Crystalline Form I, posaconazole]
Specific Surface Area ([6]; listed as Crystalline Form I of posaconazole): 1.5 m^2/g and 1.6 m^2/g | Median particle size (d (0.5)-value) ([7]; listed as Crystalline Form I (non-micronized)): 12.88 μm | amount of posaconazole dissolved ([8]; 3 min, listed as Crystalline Form I non-micronized): 29% | amount of posaconazole dissolved ([8]; 25 min, listed as Crystalline Form I non-micronized): 61% | polymorphic transition [11]: no evidence of polymorphic transition

Reference: US8435998B2, “Crystalline form of posaconazole” (Sandoz AG, priority 2008, dated 2013)
